Test results from patent US11090364B2, “Conjugates of a pharmaceutical agent and a moiety capable of binding to a glucose sensing protein” (SANOFI, priority 2016, dated 2021).
Like-named read-outs stand apart in the source and are kept apart here. Blank lines part the entries; values can stand above or below the compound they belong to.

Key:
erythrocytes = assay: Erythrocyte dialysis assay (6-NBD-Glc, Rapid Equilibrium Dialysis); type: binding, rat; conditions: for Fluorescence intensity in buffer compartiment, 1:1 Dilution k^off / Fluorescence intensity in buffer compartiment, 1:1 Dilution k^on: 6-NBD-Glc 25 μM; for Fluorescence intensity in buffer compartiment, 6-NBD-Glc [50 μM]: absence of glucose
Text: 3. Erythrocyte Dialysis Assay
Here 6-NBD-Glc or alternatively 2-NBD-Glc was used in dialysis based competition experiments.
Freshly isolated heparinized rat blood samples were immideately diluted (1:5) in PBS buffer to generate a stable stock solution. This stock solution was further diluted (1:1 or 1:3) for the following dialysis experiments in Rapid Equilibrium Dialysis (RED) devices (Thermo Scientific Pierce).
The aforementioned stock solution was further diluted (1:1 or 1:3 respectively) and added to the dialysis compartiment of a RED device. In parallel stock solution was diluted (1:1) with buffer containing 6 NBD Glc (25 μM).
Dialyses was started by addition of 6 NBD Glc (25 μM) in PBS Buffer (k^on) or pure PBS buffer (ko^off) respectively into the buffer compartiment. Aliquots (20 μl) were taken after defined time intervals from the buffer compartiment and fluorescence was measured in a UV plate reader (Thermovarioskan, Thermo).
As a control, free diffusion of 6-NBD-Glc (25 μM) in PBS buffer vs pure buffer was measured.
Glucose dependency was determined following the protocol described above, comparing the following solutions: 6 NBD-Glc (100 μM), 6 NBD-Glucose (100 μM)+Glucose 20 mM. Data are shown in the next table
Example 102 was investigated in a competition experiment following the same protocol using a 6-NBD-Glc solution (100 μM) in comparison to 6 NBD-Glucose (100 μM)+Example 102 (50 μM).

[1] = test system: A2780 Human Carcinoma Cells; assay: Glucose displacement assay (ATP measurement, CellTiter-Glo); type: cell-based
Experimental: 2. Glucose Displacement Assay (ATP Measurement)
30.000 A2780 Human Carcinoma Cells are seeded per well in a Greiner 96-well plate. Cells are expanded and cultured in RPMI 1640 medium+GlutaMAX® with 10% FCS and 11 mM glucose, at 37° C. with 5% CO2. After 44 h, culture media is changed and washed once with PBS to starvation media consisting of RPMI 1640 medium with 1% FCS without glucose for 2 hours. Cells are then washed with KRB buffer, followed incubation for 20 min at 37° C. of the treatment mix consisting of: 60 μL KRB buffer/well with 10 μL of compound or DMSO 10×. 10 μl of rotenone is added to the mix to a final concentration of 0.5 μM. Cell plates are left for 2 min at room temperature. 20 μL of different glucose concentrations are added to the mix—typically 0.1 to 20 mM range -. Cells are incubated for another 15 min at 37° C., before measuring ATP with the CellTiter-Glo® Assay, under manufacturer's guidance, but without the equilibration step at room temperature for 30 min. In brief, 100 μl of Cell-Titer-Glo® Reagent is added to the wells containing already 100 μl of the previous reaction mix. Plates are mixed for 2 min at 800 rpm, followed by incubation at room temperature for 10 min to stabilize the luminescent signal. Luminescence is then recorded with the Tekan Ultra Evolution reader.

Compound: O=[N+]([O-])c1ccc(NC[C@H]2OC(O)[C@H](O)[C@@H](O)[C@@H]2O)c2nonc12 (some centres unmarked) [Example 6-NBD-Glc, 6-(N-(7-Nitrobenz-2-oxa-1,3-diazol-4-yl)amino)-6-Deoxyglucose]
Fluorescence intensity in buffer compartiment, 1:1 Dilution k^off (erythrocytes; 0 min): 0 AU
Fluorescence intensity in buffer compartiment, 1:1 Dilution k^on (erythrocytes; 0 min): 55 AU
Fluorescence intensity in buffer compartiment, NBD-Glc [50 μM] + Glc [10 mM] (erythrocytes; 0 min): 0 AU
Fluorescence intensity in buffer compartiment, 6-NBD-Glc [50 μM] (erythrocytes; 0 min): 0 AU
Fluorescence intensity in buffer compartiment, NBD-Glc [50 μM] + Glc [10 mM] (erythrocytes; 15 min): 7.2 AU
Fluorescence intensity in buffer compartiment, 6-NBD-Glc [50 μM] (erythrocytes; 15 min): 7.5 AU
Fluorescence intensity in buffer compartiment, 1:1 Dilution k^off (erythrocytes; 30 min): 3.4 AU
Fluorescence intensity in buffer compartiment, 1:1 Dilution k^on (erythrocytes; 30 min): 50.6 AU
Fluorescence intensity in buffer compartiment, NBD-Glc [50 μM] + Glc [10 mM] (erythrocytes; 30 min): 11.9 AU
Fluorescence intensity in buffer compartiment, 6-NBD-Glc [50 μM] (erythrocytes; 30 min): 10.6 AU
Fluorescence intensity in buffer compartiment, 1:1 Dilution k^off (erythrocytes; 60 min): 6.5 AU
Fluorescence intensity in buffer compartiment, 1:1 Dilution k^on (erythrocytes; 60 min): 45.1 AU
Fluorescence intensity in buffer compartiment, NBD-Glc [50 μM] + Glc [10 mM] (erythrocytes; 60 min): 17 AU
Fluorescence intensity in buffer compartiment, 6-NBD-Glc [50 μM] (erythrocytes; 60 min): 11.1 AU
Fluorescence intensity in buffer compartiment, 1:1 Dilution k^off (erythrocytes; 90 min): 12 AU
Fluorescence intensity in buffer compartiment, 1:1 Dilution k^on (erythrocytes; 90 min): 33 AU
Fluorescence intensity in buffer compartiment, NBD-Glc [50 μM] + Glc [10 mM] (erythrocytes; 90 min): 18.5 AU
Fluorescence intensity in buffer compartiment, 6-NBD-Glc [50 μM] (erythrocytes; 90 min): 14.9 AU
Fluorescence intensity in buffer compartiment, 1:1 Dilution k^off (erythrocytes; 120 min): 16.1 AU
Fluorescence intensity in buffer compartiment, 1:1 Dilution k^on (erythrocytes; 120 min): 34 AU
Fluorescence intensity in buffer compartiment, NBD-Glc [50 μM] + Glc [10 mM] (erythrocytes; 120 min): 20.3 AU
Fluorescence intensity in buffer compartiment, 6-NBD-Glc [50 μM] (erythrocytes; 120 min): 15.8 AU
Fluorescence intensity in buffer compartiment, NBD-Glc [50 μM] + Glc [10 mM] (erythrocytes; 180 min): 22.5 AU
Fluorescence intensity in buffer compartiment, 6-NBD-Glc [50 μM] (erythrocytes; 180 min): 16 AU
Free concentration of 6-NBD-Glc in presence of Glc [10 mM] (erythrocytes; Glc 10 mM versus absence of glucose): increased

Compound: OC1O[C@H](CN2CCN(c3ccc(Cl)cc3)CC2)[C@H](O)[C@H](O)[C@H]1O (stereo partly drawn) [Example 102, (3R,4S,5R,6R)-6-[[4-(4-Chlorophenyl)piperazin-1-yl]methyl]tetrahydropyran-2,3,4,5-tetrol]
Fluorescence intensity of 6-NBD-Glc in competition with Example 102 [25 μM] (erythrocytes; 0 min, competition with 6-NBD-Glc): 0 AU
Fluorescence intensity of 6-NBD-Glc in competition with Example 102 [25 μM] (erythrocytes; 15 min, competition with 6-NBD-Glc): 4.9 AU
Fluorescence intensity of 6-NBD-Glc in competition with Example 102 [25 μM] (erythrocytes; 30 min, competition with 6-NBD-Glc): 11.1 AU
Fluorescence intensity of 6-NBD-Glc in competition with Example 102 [25 μM] (erythrocytes; 60 min, competition with 6-NBD-Glc): 12.5 AU
Fluorescence intensity of 6-NBD-Glc in competition with Example 102 [25 μM] (erythrocytes; 90 min, competition with 6-NBD-Glc): 19.3 AU
Fluorescence intensity of 6-NBD-Glc in competition with Example 102 [25 μM] (erythrocytes; 120 min, competition with 6-NBD-Glc): 25.1 AU
Fluorescence intensity of 6-NBD-Glc in competition with Example 102 [25 μM] (erythrocytes; 180 min, competition with 6-NBD-Glc): 32.1 AU
Slope of fluorescence intensity vs time in comparison to control (erythrocytes; competition with 6-NBD-Glc): clear increase in the slope

Compound: Methyl-2-O-(3-chloro-3′-methoxy-4-phenoxyphenylcarbonyl)-α-D-glucopyranoside [Example 124]
IC50 ([1]; 10 mM Gluc, read-out: IC50 @ 10 mM Gluc): > 100 µM
IC50 ([1]; read-out: IC50): 33.2 µM

The next lines start with the values.

IC50 ([1]; read-out: IC50): 84.8 µM
Compound: 6-Desoxy-6-(3-undecenyloxypheny)-4-piperazin-1-yl-D-galactopyranose [Example 141]

IC50 ([1]; Homo sapiens, 10 mM Gluc, read-out: IC50 @ 10 mM Gluc): > 100 µM
IC50 ([1]; Homo sapiens, read-out: IC50): 8.37 µM
Compound: COc1cc(C(=O)OC[C@H]2OC(O)[C@H](O)[C@@H](O)[C@@H]2O)cc(Cl)c1Oc1ccccc1 (some centres unmarked) [Example 138]
